Structures can show the parent of a compound that is named as a salt. Where two headings read alike, the source gives them in different places.
Tested on: male Std:ddY mice
Assay: Phenyl-1,4-benzoquinone-induced writhing test
Format: in vivo
Conditions: for inhibition in vivo at 1 mg/kg / ED50 / inhibition in vivo at 10 mg/kg: Mus musculus; for inhibition in vivo at 1 mg/kg / inhibition in vivo at 10 mg/kg: 1 h, 60 minutes before PBQ, read-out: Inhibitory percentage (%); for inhibition in vivo at 1 mg/kg: subcutaneously administered at a dose of 1 mg/kg; for ED50 / ED50 (mg/kg sc) / ED50 (mg/kg po): writhing inhibition, logit analysis; for inhibition in vivo at 10 mg/kg: orally administered at a dose of 10 mg/kg
Method: Phenyl-1,4-benzoquinone-induced Writhing Test Referring to the method disclosed in Proc. Soc. exp. Biol. […] For oral administration, a test compound was suspended in 0.5% tragacanth solution. […] In the control group, a physiological saline solution containing 10% Tween 80 and 10% ethanol was administered in the case of subcutaneous administration, or a 0.5% tragacanth solution was administered in the case of oral administration. The number of writhing movements in the test compound-treated group was compared with that in the control group, and the writhing inhibitory percentage was calculated therefrom and considered as an analgesic effect. Writhing inhibitory percentage (%)=[(A−B)/A]×100 In the above equation, A means the number of writhing movements in the control group, and B means the number of writhing movements in the test compound-treated group. From the writhing inhibitory percentage of the test compound, ED50 (mg/kg) was calculated by logit analysis.

[1] = sc, subcutaneous administration, read-out: ED50 (mg/kg sc)
[2] = po, oral administration, read-out: ED50 (mg/kg po)

Row | Structure (SMILES) | inhibition in vivo at 1 mg/kg (sc) [%] | ED50 [1] [mg/kg] | also measured
1 | CS(=O)(=O)Nc1cc(CC(=O)Nc2cccc(C3CCCCC3)c2)ccc1O [Ex. 34, N-(3-cyclohexylphenyl)-4-hydroxy-3-(methanesulfonylamino)phenylacetamide] | 41.5 | 0.48 | –
2 | COc1cc(CC(=O)Nc2cccc(C#Cc3ccccc3C(F)(F)F)c2)ccc1O [Ex. 37, 4-hydroxy-3-methoxy-N-[3-[2-(2-trifluoromethylphenyl)-ethynyl]phenyl]phenylacetamide] | 59.6 | 0.46 | –
3 | COc1cc(CC(=O)Nc2cccc(C3CCCCCC3)c2)ccc1OCCN [Ex. 58, 4-(2-aminoethoxy)-N-(3-cycloheptylphenyl)-3-methoxyphenylacetamide hydrochloride] | 54.4 | – | –
4 | COc1cc(CC(=O)Nc2ccccc2Cc2ccccc2)ccc1O [Ex. 97, N-(2-benzylphenyl)-4-hydroxy-3-methoxyphenylacetamide] | 54.9 | – | –
5 | COc1cc(CC(=O)Nc2ccc3c(c2)C(=O)/C(=C/C(C)C)CC3)ccc1O [Ex. 250] | 55 | – | –
6 | COc1cc(CC(=O)Nc2ccc3c(c2)C(=O)C(CC(C)C)CC3)ccc1O (centres unmarked) [Ex. 251, 4-hydroxy-3-methoxy-N-[1-oxo-2-(2-methylpropyl)-1,2,3,4-tetrahydronaphthalen-7-yl]phenylacetamide] | 42.7 | – | –
7 | COc1cc(CC(=O)Nc2cccc(C3CCCCC3)c2)ccc1O [Example 1, N-(3-cyclohexylphenyl)-4-hydroxy-3-methoxyphenylacetamide] | 100 | – | ED50 (mg/kg sc) (subcutaneous administration, listed as Ex. 1): 0.014 mg/kg
8 | COc1cc(CC(=O)Nc2cccc(C3C4CC5CC(C4)CC3C5)c2)ccc1O (centres unmarked) [Example 3, N-[3-(adamantan-2-yl)phenyl]-4-hydroxy-3-methoxyphenylacetamide] | 91.3 | 0.46 | –
9 | COc1cc(CC(=O)Nc2cccc(C3CCCC3)c2)ccc1O [Example 4, N-(3-cyclopentylphenyl)-4-hydroxy-3-methoxyphenylacetamide] | 79.6 | – | –
10 | COc1cc(CC(=O)Nc2cccc(CC3CCCCC3)c2)ccc1O [Example 5, N-[3-(cyclohexylmethyl)phenyl]-4-hydroxy-3-methoxyphenylacetamide] | 83.5 | 0.57 | –
11 | COc1cc(CC(=O)Nc2cccc(C3=CCCCC3)c2)ccc1O [Example 9, N-[3-(cyclohexen-1-yl)phenyl]-4-hydroxy-3-methoxyphenylacetamide] | 93.2 | 0.23 | –
12 | COc1cc(CC(=O)Nc2cccc(C3CCCCC3c3ccccc3)c2)ccc1O (centres unmarked) [Example 11, 4-hydroxy-3-methoxy-N-[3-(2-phenylcyclohexan-1-yl)phenyl]-phenylacetamide] | 88.4 | 0.19 | –
13 | COc1cc(CC(=O)Nc2cccc(C3CCC(C)CC3)c2)ccc1O (centres unmarked) [Example 13, 4-hydroxy-3-methoxy-N-[3-(4-methylcyclohexan-1-yl)phenyl]-phenylacetamide] | 100 | ≤ 0.1 | ED50 (mg/kg sc) (subcutaneous administration, listed as Ex. 13): 0.097 mg/kg
14 | COc1cc(CC(=O)Nc2cccc(-c3ccccc3)c2)ccc1O [Example 35, 4-hydroxy-3-methoxy-N-(3-phenylphenyl)phenylacetamide] | 89.4 | 0.23 | –
15 | COc1cc(CC(=O)Nc2cccc(C#Cc3ccccc3)c2)ccc1O [Example 36, 4-hydroxy-3-methoxy-N-[3-(2-phenylethynyl)phenyl]phenylacetamide] | 92.3 | – | ED50 (mg/kg sc) (subcutaneous administration, listed as Ex. 36): 0.046 mg/kg
16 | COc1cc(CC(=O)Nc2cccc(CCc3ccccc3)c2)ccc1O [Example 54, 4-hydroxy-3-methoxy-N-[3-(2-phenylethyl)phenyl]phenylacetamide] | 90.4 | ≤ 0.1 | ED50 (mg/kg sc) (subcutaneous administration, listed as Ex. 54): 0.081 mg/kg
17 | COc1cc(CC(=O)Nc2cccc(/C=C\c3ccccc3)c2)ccc1O [Example 56, 4-hydroxy-3-methoxy-N-[3-[(Z)-2-phenylvinyl]phenyl]phenylacetamide] | 82.7 | 0.11 | –

Row | Structure (SMILES) | inhibition in vivo at 1 mg/kg (sc) [%] | ED50 [1] [mg/kg] | also measured
18 | COc1cc(CC(=O)Nc2cccc(-c3ccccc3)c2)ccc1OCCN.Cl [Example 63, 4-(2-aminoethoxy)-3-methoxy-N-(3-phenylphenyl)phenylacetamide] | 100 | – | inhibition in vivo at 10 mg/kg (po): 100%; ED50 (mg/kg po) (oral administration, listed as Ex. 63): 0.021 mg/kg; ED50 (mg/kg sc) (subcutaneous administration, listed as Ex. 63): 0.016 mg/kg
19 | COc1cc(CC(=O)Nc2cccc(C3CCC(C(C)(C)C)CC3)c2)ccc1OC(C)=O (centres unmarked) [Example 69, 4-acetoxy-N-[3-(4-tert-butylcyclohexan-1-yl)phenyl]-3-methoxyphenylacetamide] | 99 | ≤ 0.1 | inhibition in vivo at 10 mg/kg (po): 73.5%; ED50 [2]: 2.81 mg/kg; ED50 (mg/kg sc) (subcutaneous administration, listed as Ex. 69): 0.088 mg/kg
20 | COc1cc(CC(=O)Nc2cccc(C3CCC(C(C)(C)C)CC3)c2)ccc1OC(=O)c1ccccc1 (centres unmarked) [Example 70, 4-benzoyloxy-N-[3-(4-tert-butylcyclohexan-1-yl)phenyl]-3-methoxyphenylacetamide] | 93.2 | 0.16 | inhibition in vivo at 10 mg/kg (po): 68.6%; ED50 [2]: 9.7 mg/kg
21 | COc1cc(CC(=O)Nc2cccc(C3CCC(C(C)(C)C)CC3)c2)ccc1OC(=O)C(C)(C)C (centres unmarked) [Example 71, 4-tert-butylcarbonyloxy-N-[3-(4-tert-butylcyclohexan-1-yl)-phenyl]-3-methoxyphenylacetamide] | 94.2 | 0.16 | –
22 | COc1cc(CC(=O)Nc2cccc(C3=CCC(C(C)(C)C)CC3)c2)ccc1O (centres unmarked) [Example 80, N-[3-(4-tert-butylcyclohexen-1-yl)phenyl]-4-hydroxy-3-methoxyphenylacetamide] | 100 | 0.37 | –
23 | COc1cc(CC(=O)Nc2cccc(C3CCC(C(F)(F)F)CC3)c2)ccc1O (centres unmarked) [Example 81, 4-hydroxy-3-methoxy-N-[3-(4-trifluoromethylcyclohexan-1-yl)-phenyl]phenylacetamide] | 100 | – | –
24 | COc1cc(CC(=O)Nc2cccc(C3CCCC(C)C3)c2)ccc1O (centres unmarked) [Example 83, 4-hydroxy-3-methoxy-N-[3-(3-methylcyclohexan-1-yl)phenyl]-phenylacetamide] | 83 | ≤ 0.1 | ED50 (mg/kg sc) (subcutaneous administration, listed as Ex. 83): 0.10 mg/kg
25 | COc1cc(CC(=O)Nc2cccc(C3C(C)CCCC3C)c2)ccc1O (centres unmarked) [Example 84, N-[3-(2,6-dimethylcyclohexan-1-yl)phenyl]-4-hydroxy-3-methoxyphenylacetamide] | 67.7 | 0.45 | –
26 | COc1cc(CC(=O)Nc2cccc(C3CC(C)CC(C)C3)c2)ccc1O (centres unmarked) [Example 85, N-[3-(3,5-dimethylcyclohexan-1-yl)phenyl]-4-hydroxy-3-methoxyphenylacetamide] | 76.9 | 0.31 | –
27 | COc1cc(CC(=O)Nc2cccc(N3CCC(C(C)(C)C)CC3)c2)ccc1O [Example 86, N-[3-(4-tert-butylpiperidin-1-yl)phenyl]-4-hydroxy-3-methoxyphenylacetamide] | 78.8 | 0.33 | –
28 | COc1cc(CC(=O)Nc2cccc(N3CCCC(C4CCCCC4)C3)c2)ccc1O (centres unmarked) [Example 87, N-[3-(3-cyclohexylpiperidin-1-yl)phenyl]-4-hydroxy-3-methoxyphenylacetamide] | 95.8 | 0.4 | –
29 | COc1cc(CC(=O)Nc2cccc(N3CCCC(C)C3)c2)ccc1O (centres unmarked) [Example 88, N-[3-(3-methylpiperidin-1-yl)phenyl]-4-hydroxy-3-methoxyphenylacetamide] | 76.6 | – | –
30 | COc1cc(CC(=O)Nc2cccc(-c3ccc(Cl)s3)c2)ccc1O [Example 100, 4-hydroxy-3-methoxy-N-[3-(2-chlorothiophen-5-yl)phenyl]-phenylacetamide] | 100 | – | –
31 | COc1cc(CC(=O)Nc2cccc(-c3cccn3C(=O)OC(C)(C)C)c2)ccc1O [Example 101, 4-hydroxy-3-methoxy-N-[3-(1-tert-butoxycarbonylpyrrol-2-yl)-phenyl]phenylacetamide] | 100 | 0.23 | –
32 | COc1cc(CC(=O)Nc2cccc(CCC3CCCCC3)c2)ccc1O [Example 114, 4-hydroxy-3-methoxy-N-[3-(2-cyclohexylethyl)phenyl]phenylacetamide] | 98 | – | –
33 | COc1cc(CC(=O)Nc2cccc(-c3ccccc3C3CCCCC3)c2)ccc1OCCN [Example 122, 4-(2-aminoethoxy)-N-[3-(2-cyclohexylphenyl)phenyl]-3-methoxyphenylacetamide] | – | – | inhibition in vivo at 10 mg/kg (po): 99%; ED50 [2]: ≤ 1 mg/kg; ED50 (mg/kg po) (oral administration, listed as Ex. 122): 0.58 mg/kg
34 | COc1cc(CC(=O)Nc2cccc(-c3ccccc3F)c2)ccc1OCCN [Example 123, 4-(2-aminoethoxy)-N-[3-(2-fluorophenyl)phenyl]-3-methoxyphenylacetamide] | – | – | inhibition in vivo at 10 mg/kg (po): 100%; ED50 [2]: ≤ 1 mg/kg; ED50 (mg/kg po) (oral administration, listed as Ex. 123): 0.76 mg/kg
